From PubChem BioAssay (NCI)
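Exposure lasted 48 hours, with cells grown in 96-well plates and compounds tested at five concentrations. TGI marks complete inhibition of growth.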 Where a SMILES comes first, the peptide text is derived from it. The star is where a group is joined. Ethyl(2-NMe3+) = C[N+](C)(C)CC*; Boc = CC(C)(C)OC(=O)*

Experiments:
Assay in all cases: NCI anticancer screen, dose series, 48 h
MOLT-4 leukemia = tested on: MOLT-4 leukemia
HOP-92 NSCLC = tested on: HOP-92 NSCLC
SF-295 CNS = tested on: SF-295 CNS
RPMI-8226 leukemia = tested on: RPMI-8226 leukemia
HT29 colon = tested on: HT29 colon
SW-620 colon = tested on: SW-620 colon
SK-MEL-5 melanoma = tested on: SK-MEL-5 melanoma
HCC-2998 colon = tested on: HCC-2998 colon
EKVX NSCLC = tested on: EKVX NSCLC
NCI-H522 lung = tested on: NCI-H522 lung
NCI-H226 lung = tested on: NCI-H226 lung
HCT-15 colon = tested on: HCT-15 colon
IGROV1 ovarian = tested on: IGROV1 ovarian
UACC-62 melanoma = tested on: UACC-62 melanoma
LOX IMVI melanoma = tested on: LOX IMVI melanoma
CCRF-CEM leukemia = tested on: CCRF-CEM leukemia

| SMILES | TGI (MOLT-4 leukemia) [µM] | TGI (HOP-92 NSCLC) [µM] | TGI (SF-295 CNS) [µM] | TGI (RPMI-8226 leukemia) [µM] | TGI (HT29 colon) [µM] | TGI (SW-620 colon) [µM] | TGI (SK-MEL-5 melanoma) [µM] | TGI (HCC-2998 colon) [µM] | TGI (EKVX NSCLC) [µM] | TGI (NCI-H522 lung) [µM] | TGI (NCI-H226 lung) [µM] | TGI (HCT-15 colon) [µM] | TGI (IGROV1 ovarian) [µM] | TGI (UACC-62 melanoma) [µM] | TGI (LOX IMVI melanoma) [µM] | TGI (CCRF-CEM leukemia) [µM] |
| --- | --- | --- | --- | --- | --- | --- | --- | --- | --- | --- | --- | --- | --- | --- | --- | --- |
| COc1cc([C@H]2CC(=O)C[C@H](c3cc(OC)c(OC)c(OC)c3)C23C(=O)c2ccccc2C3=O)cc(OC)c1OC | > 100 | > 100 | > 100 | > 100 | > 100 | > 100 | > 100 | > 100 | > 100 | 95.1 | > 100 | > 100 | > 100 | > 100 | – | – |
| CC(NC(=O)C(Cc1ccc(OCC[N+](C)(C)C)cc1)NC(=O)OC(C)(C)C)C(=O)NC(Cc1ccccc1)C(=O)NCC(N)=O (configuration not stated) (Boc-Y(Ethyl(2-NMe3+))AFG-NH2; configuration not given here) | > 100 | 29.6 | 17.4 | > 100 | > 100 | > 100 | > 100 | 48.8 | – | > 100 | 59 | > 100 | 58.4 | 71.7 | > 100 | – |
| O=C(O)CCc1cccc2c1oc1c(CCC(=O)O)cccc12 | > 100 | > 100 | > 100 | > 100 | > 100 | > 100 | > 100 | > 100 | – | > 100 | > 100 | > 100 | > 100 | > 100 | > 100 | > 100 |
| COc1c(Br)cc(/C=C(\C#N)c2cccnc2)cc1Br | > 100 | 75 | > 100 | > 100 | > 100 | > 100 | > 100 | > 100 | > 100 | > 100 | > 100 | > 100 | > 100 | > 100 | – | > 100 |
| Cc1c(F)c(N)c2c(=O)cc(-c3ccc(N)c(F)c3)oc2c1F | > 100 | 63.8 | 43.2 | > 96.1 | 98.6 | > 100 | 67 | > 100 | 54.7 | 30.3 | 36 | > 100 | 25.2 | 31 | 55.8 | > 100 |
| CC(C)(C)OC(=O)NC(CCC(=O)OCc1ccccc1)C(=O)NCCCO (configuration not stated) | > 100 | > 100 | – | > 100 | > 100 | > 100 | > 100 | > 100 | > 100 | > 100 | > 100 | > 100 | > 100 | > 100 | > 100 | > 100 |
| COc1cccc(N2C(=O)/C(=C\c3ccccc3)SC2c2cc(OC)c(OC)c(OC)c2)c1 (configuration not stated) | > 100 | > 100 | > 100 | > 100 | > 100 | – | > 100 | > 100 | > 100 | > 100 | > 100 | > 100 | > 100 | > 100 | > 100 | > 100 |
| CC(=O)N(C(C)=O)n1c(-c2ccccc2)n[nH]c1=O | > 100 | > 100 | > 100 | > 100 | > 100 | > 100 | > 100 | > 100 | > 100 | > 100 | – | > 100 | > 100 | > 100 | > 100 | > 100 |
| COC(=O)[C@@H](NC(=O)N(CCC#N)CCCN(C(=O)N[C@H](Cc1ccccc1)C(=O)OC)c1ccccc1)C(C)C | > 100 | 80 | > 100 | > 100 | – | > 100 | > 100 | > 100 | > 100 | > 100 | > 100 | > 100 | > 100 | > 100 | > 100 | > 100 |
| CC1=C(C(=O)N(C(C)C)C(C)C)CC(C(=O)N(C(C)C)C(C)C)=C(C)N1 | > 100 | > 100 | > 100 | > 100 | > 100 | > 100 | > 100 | > 100 | > 100 | > 100 | > 100 | > 100 | > 100 | > 100 | > 100 | > 100 |
| COc1cc2c(cc1OC)[C@H]1C(COC(=O)c3ccccc3)CSC(=Nc3ccccc3)N1CC2 (some centres not stated) | – | > 100 | > 100 | > 100 | > 100 | > 100 | > 100 | > 100 | > 100 | 6.08 | > 100 | > 100 | > 100 | > 100 | > 100 | > 100 |
| CCOC(=O)/C(=C\c1cccs1)P(=O)(OCC)OCC | > 100 | 84.5 | > 100 | 77.1 | 36.3 | 36.6 | 31.6 | 33.1 | 60.3 | 28.4 | 43.3 | 32.4 | – | 32.8 | 37.5 | > 100 |
| Cc1ccc(N2CCC3(CC2)OCCO3)cc1 | > 100 | > 100 | > 100 | > 100 | > 100 | > 100 | > 100 | > 100 | > 100 | > 100 | > 100 | > 100 | > 100 | > 100 | – | > 100 |
| COc1cc(/C=C2\C(=O)N(c3ccccc3Cl)C(c3ccccc3)S2(=O)=O)cc(OC)c1OC (configuration not stated) | 36.4 | > 100 | > 100 | 42.9 | 52.2 | > 100 | 45.5 | > 100 | > 100 | 46.5 | > 100 | > 100 | – | > 100 | 50.5 | 48.9 |
| Nc1[nH]c(=S)c2c(N)n[nH]c2c1C(=O)Nc1ccccc1 | > 100 | > 100 | – | > 100 | > 100 | > 100 | > 100 | > 100 | > 100 | > 100 | > 100 | > 100 | > 100 | > 100 | > 100 | – |
| O=C(Nc1ccccc1)n1[nH]c(=O)n(-c2ccccc2)c1=O | – | > 100 | > 100 | > 100 | > 100 | > 100 | > 100 | > 100 | – | > 100 | > 100 | > 100 | – | > 100 | > 100 | > 100 |
| C=CCc1ccccc1CC1(OCC)OC(=O)c2ccccc21 (configuration not stated) | > 100 | > 100 | > 100 | > 100 | > 100 | > 100 | > 100 | > 100 | > 100 | > 100 | > 100 | > 100 | > 100 | > 100 | – | – |
| C[C@]12C[C@@H](c3ccccc3)Nc3ccccc3N1C(c1ccccc1)=NO2 | 43.5 | 58.4 | > 100 | 49.3 | > 100 | > 100 | 30.8 | > 100 | 79.3 | 86.4 | 90.8 | > 100 | > 100 | > 100 | – | 74.3 |
| COc1ccc(N2C(=O)C3c4[nH]c5ccccc5c4C4CC(C)CC(C)C4C3C2=O)cc1 (configuration not stated) | > 100 | > 100 | > 100 | > 100 | > 100 | > 100 | > 100 | > 100 | > 100 | > 100 | > 100 | > 100 | > 100 | > 100 | – | > 100 |
| CC1=NN(C(=O)CC(=O)Nc2ccc(C)cc2)C(=O)C1N=Nc1ccc(S(=O)(=O)c2ccc(N=NC3C(=O)N(C(=O)CC(=O)Nc4ccc(C)cc4)N=C3C)cc2)cc1 (configuration not stated) | > 100 | > 100 | > 100 | > 100 | – | > 100 | > 100 | > 100 | > 100 | > 100 | > 100 | > 100 | > 100 | > 100 | > 100 | > 100 |
| CN(N)/N=N/c1nc[nH]c1[N+](=O)[O-] | 54.6 | – | > 100 | 57.3 | > 100 | > 100 | > 100 | > 100 | > 100 | > 100 | > 100 | > 100 | > 100 | > 100 | > 100 | 33 |
| O=S(Nc1ccccc1)c1ccc(Cl)c(Cl)c1 (configuration not stated) | > 100 | – | 50.1 | > 100 | > 100 | > 100 | 62.5 | > 100 | > 100 | > 100 | > 100 | > 100 | > 100 | 64.6 | > 100 | > 100 |
| COC(=O)C(Cc1ccc(Oc2cc(CC(NC(=O)c3ccccc3)C(=O)OC)ccc2OC)cc1)NC(=O)c1ccccc1 (configuration not stated) | > 100 | > 65.1 | > 100 | > 69.3 | > 100 | > 100 | 32.9 | > 100 | > 86.9 | 27.2 | > 64.5 | > 100 | > 100 | 42.7 | > 71.6 | – |
| CC1(c2cccc(Cl)c2)CC(c2cccc(Cl)c2)=C(C#N)C(=C(C#N)C#N)N1 (configuration not stated) | 57.3 | 21.4 | 33.4 | 59.4 | 91.2 | > 100 | 28.6 | 30.3 | 46.5 | – | 60.9 | 33.8 | 31.8 | 34.6 | 39 | > 100 |
| CCN(CC)c1c(-c2c(N(CC)CC)c(OC(C)=O)c3sccn3c2=O)c(=O)n2ccsc2c1OC(C)=O | > 100 | > 100 | > 100 | > 100 | > 100 | > 100 | > 100 | > 100 | > 100 | – | > 100 | > 100 | > 100 | > 100 | > 100 | > 100 |
| Nc1ncnc2c1ncn2C1OC(CO)C(O)C(O)C1O (configuration not stated) | > 100 | > 100 | > 100 | > 100 | > 100 | > 100 | > 100 | > 100 | > 100 | > 100 | > 100 | > 100 | > 100 | – | > 100 | > 100 |
| C=CC[C@@]1([C@H](C=C)COCc2ccc(OC)cc2)CC[C@]2(C)OC(C)(C)[C@@H](c3ccccc3)N2C1=S | > 100 | > 100 | > 100 | > 100 | > 100 | > 100 | 61.8 | > 100 | > 100 | > 100 | > 100 | > 100 | – | > 100 | > 100 | > 100 |
| C/C(=N\NC(=O)c1ccncc1)c1ccccc1F | > 10 | > 10 | > 10 | > 10 | – | > 10 | > 10 | > 10 | – | – | > 10 | > 10 | > 10 | – | > 10 | > 10 |
| COc1ccc2c(c1)Oc1cc(O)ccc1[C@@H]2c1ccccc1C(=O)NC(C)c1ccccc1 (some centres not stated) | 36.2 | – | 28.6 | 39.1 | 34 | 38.9 | 32.2 | 26.6 | 31.5 | 33.4 | 35.4 | 34.6 | 41.3 | 28.2 | 30.4 | 98.7 |
| Cc1cc2nc(N3C(=O)/C(=C/c4ccccc4S)N=C3c3ccccc3)sc2cc1C | > 100 | 82.8 | > 100 | > 100 | 76.7 | > 100 | > 100 | > 100 | > 100 | – | – | > 100 | > 100 | > 100 | > 100 | 46.6 |
